Data from patent publication US10258557B2, “Peptide for stimulating melanogenesis” (priority 2017, dated 2019).
Where a SMILES comes first, the peptide text is derived from it.

System: B16F10 cells
Assay: MTT assay, cell viability
Assay type: cell-based, mouse
Details: different concentrations, 24, 48 or 72 hours
Procedure: B16F10 is a melanoma cell line isolated from mouse skin (American Type Culture Collection, USA) and was cultured in phenol red-free Dulbecco's Modified Eagle Medium (DMEM) containing 10% (v/v) FBS and penicillin/streptomycin (100 IU/[…]) in 5% CO2 at 37° C.
The cells (2×10^3) in 100 μl complete DMEM were seeded in 96-well plates and treated with the peptide of SEQ ID NO: 1 at different concentrations. The cells treated with ddH2O was used as controls. Ten microliters of 5 mg/ml 3-(4,5-dimethyl-2-thiazolyl)-2,5-diphenyl-2H-tetrazolium bromide solution (MTT; Sigma) was added to each well and incubated at 37° C. for 3 hours. After that, 100 μl 10% SDS in 0.01N HCl was added to dissolve the MTT formazan crystals. The resultant optical density was measured by spectrophotometry at dual wavelengths, 550 and 630 nm.

C[C@H](NC(=O)[C@H](CO)NC(=O)[C@@H](N)CC(N)=O)C(=O)N[C@H](C(=O)N[C@@H](CCC(=O)O)C(=O)N[C@@H](CCCNC(=N)N)C(=O)N[C@@H](CCC(=O)O)C(=O)O)[C@@H](C)O [peptide of SEQ ID NO: 1, AsnSerAlaThrGluArgGlu] (H-NSATERE-OH)
cell viability (MTT) (FIG. 3): did not significantly affect the viability | cell viability (MTT) (FIG. 3, listed as peptide having the amino acid sequence of SEQ ID NO: 1): did not significantly affect viability
